Experiment: gradient 5% acetonitrile 3 min, to 50% in 2 min, to 85% in 15 min, held 3 min, 100 µL/min
Details: column: Zorbax Extend-C18 2.1 x 50 mm; eluents: water / acetonitrile, 0.1% formic acid
Outline: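 Over 3 months, pure standards in mixtures of ~100 molecules were run by HPLC coupled to a quadrupole time-of-flight mass spectrometer in positive and negative ionization mode. The column was a Zorbax Extend-C18 (2.1 × 50 mm, 1.8 μm) at 100 μL/min, eluted with water and acetonitrile each holding 0.1% formic acid, with 40 μL dead and 900 μL dwell volumes. Retention time was determined from adduct peaks chosen by software and checked manually.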

Structure (SMILES) | RP-LC retention time [s]
O=C(c1ccc(Br)cc1)N1CCC(n2c(-c3ccco3)nc3cccnc32)C1 (centres undefined) | 827
Cc1ccc(F)cc1S(=O)(=O)N1CCC(N2CCN(Cc3ccccc3)C(=O)C2=O)CC1 | 883
CCCCNc1cc(C)nc2nc(-c3ccc(C(C)(C)C)cc3)nn12 | 1100
CCOC(=O)c1c(C)oc2nc(C)nc(NCCCN3CCN(c4cccc(C)c4)C(C)C3)c12 (centres undefined) | 778
CNC(=O)C1CCCN(S(=O)(=O)c2ccc(OC)c(OC)c2)C1 (centres undefined) | 657
Cc1cc(C)c(NC(=O)COc2cccc3c(=O)n(C)ccc23)c(C)c1 | 805
Cc1cccc(C(=O)N2CCC3(CC2)NC(=O)c2cc(C)ccc2N3C)c1 | 805
CCOc1ccc(S(=O)(=O)N2CCC(C(=O)NCCc3ccc(OC)c(OC)c3)CC2)cc1C | 901
Cc1ccc(NC(=O)C2CC(=O)N(c3n[nH]c4cccc(F)c34)C2)cc1 (centres undefined) | 708
Cc1cnc(C2CCC2)n1CCNS(=O)(=O)c1ccccc1 | 615
Cc1ccc(NC(=O)Cn2c(C)nc3onc(C)c3c2=O)c(Cl)c1 | 835
O=C(C1CCC1)N1CCc2sc(S(=O)(=O)NCc3ccc(F)cc3)cc2C1 | 877
COc1cc(-c2nc(-c3ccc4c(c3)oc(=O)n4C(C)C)no2)cc(OC)c1OC | 1110
Cc1ccc(CN2N=C(C(=O)N3CCOCC3)S(=O)(=O)c3cc(Cl)ccc32)cc1 | 896
CC(C)(C)NCC(O)COc1nsnc1N1CCOCC1 (centres undefined) | 626
CCc1ccc(-c2nc(C3CC(=O)N(c4ccc(F)c(Cl)c4)C3)no2)cc1 (centres undefined) | 1200
Clc1ccc2nc3ccccc3cc2c1 | 842
CCCN1C(=O)COc2cc(-c3noc(C(=O)N4CCN(c5ccc(Cl)cc5)CC4)n3)ccc21 | 1190
Cc1ccc(N2CN(CC#N)S(=O)(=O)c3cccnc32)cc1 | 877
COc1ccc(-c2nc(NCCN3CCCCC3C)c3ccccc3n2)cc1 (centres undefined) | 598
COc1ccc(C(=O)N2CCn3c(C)nnc3C2)c(OC)c1 | 557
CCn1cc(CCNC(=O)Nc2ccc3c(c2)OCCO3)c2cccnc21 | 661
CCn1cc(C)c(C(=O)O)c1CC(=O)Nc1ccc(Cl)cc1 | 1010

Structure (SMILES) | RP-LC retention time [s]
CCN1CCN(C(=O)C2CCCN(c3nc4ccccc4n(Cc4ccccc4)c3=O)C2)CC1 (centres undefined) | 706
CCn1cc(CCNC(=O)c2ccccc2Br)c2cccnc21 | 700
CC(=O)Nc1ccc(-c2noc(C3CCN(C(=O)c4ccc(Br)cc4)CC3)n2)cc1 | 841
CN(C)C(=O)Oc1cc(OC(=O)N(C)C)cc(C(O)CNC(C)(C)C)c1 (centres undefined) | 688
Cc1nnc(-c2ccc3ccn(CC(=O)Nc4ccc(F)cc4)c3c2)o1 | 795
Cc1ccc(N2C(=O)C3N=NN(Cc4nc(-c5ccc6c(c5)OCO6)no4)C3C2=O)cc1Cl (centres undefined) | 1010
COc1ccc(N2CCN(C(=O)C3(CCO)CC34CCOCC4)CC2)cc1 (centres undefined) | 628
Cc1cc(F)ccc1NC(=O)c1cn2c(n1)CCCC2 | 600
CCOC(=O)c1c(N)n(Cc2cccc(OC)c2)c2nc3ccccc3nc12 | 750
CCc1nc2cc(-c3noc(-c4ccc(C)c(NC(C)=O)c4)n3)ccc2o1 | 895
O=C(C1CCCC1)N1CC(c2nc(-c3ccc(F)cc3)no2)C2(CCOCC2)C1 (centres undefined) | 958
COc1ccccc1NC(=O)N1CCC(c2nnc(-c3ccccc3OC)s2)CC1 | 825
COc1ccc(Cl)cc1S(=O)(=O)N1CCC(CN2CCCCC2)CC1 | 584
CC(C)n1cnc2ccc(-c3noc(-c4ccccc4)n3)cc21 | 793
COc1ccc(CN2C(=O)CSc3c(c4ccccc4n3C)C2C(=O)NCCCOC(C)C)cc1 (centres undefined) | 884
Cc1cccc(C(=O)NCC(=O)Nc2nc3ccccc3[nH]2)c1 | 631
O=C(O)c1cc(N2CCCN(c3ncccn3)CC2)ccc1NC(=O)C1CC1 | 702
O=C(NCCCN1CCN(C2CCCCC2)CC1)C1CCCN(C(=O)c2cccc(Cl)c2)C1 (centres undefined) | 584
CCn1cc(CCN2CCC(C(=O)N3CCOCC3)CC2)c2cccnc21 | 566
CCN1CCN(C(=O)Nc2ccc(Br)cc2)c2cccnc21 | 666
CCc1ccc(C(=O)N2CCN(c3nnc4cccc(C)n34)CC2)cc1 | 691
COc1ccc2c(=O)cc(-c3cccnc3)oc2c1OC | 763
Cc1nn(CC(=O)N2CCC(C)CC2)c(=O)c2c(-n3cccc3)n(-c3ccc(Cl)cc3)nc12 | 1130

Structure (SMILES) | RP-LC retention time [s]
CCn1cc(C2=CCN(C(=O)Nc3ccc4c(c3)OCCO4)CC2)c2cccnc21 | 789
Fc1ccc(-c2ccc(CNCC3CCCO3)o2)cc1 (centres undefined) | 649
Cc1ccc(CNC(=O)c2cn3ccncc3n2)cc1 | 686
CCCN1C(=O)COc2ccc(-c3noc(CNC(=O)Cc4ccccc4)n3)cc21 | 849
Cn1cc(S(=O)(=O)N2CCC(C(=O)NCc3ccc(F)cc3)CC2)cc1C(=O)N1CCCC1 | 722
Cc1nc2cc(-c3noc(CCc4ccccc4)n3)ccc2o1 | 1050
COc1ccc2c(c1)C1(CCN(C(=O)C(C)(C)C)C1)C(=O)N2 (centres undefined) | 703
COc1ccc(Cl)cc1S(=O)(=O)Nc1ccc2nc(N3CCN(C)CC3)cc(C(=O)O)c2c1 | 604
Cc1cc(C(=O)NCCCN2CCN(c3cc(Cl)ccc3C)CC2)n(-c2ccccc2)n1 | 726
O=C1Nc2cc(C(=O)N3CCCCC3)ccc2N2CCCCC12 (centres undefined) | 762
Cc1cc(C)cc(Nc2nc(C)cc3nn(CC(=O)NC4CCCC4)c(=O)n23)c1 | 998
COc1nc2ccccc2nc1N1CCCC(C(=O)NCc2ccc(Cl)cc2)C1 (centres undefined) | 1110
Cc1ccc(-c2noc(Cn3ccn(-c4cc(C)ccc4C)c(=O)c3=O)n2)cc1 | 950
O=C(CCC[C@@H]1[C@H]2CCCN3CCC[C@@H](CN1C(=O)C1CC1)[C@@H]23)Nc1ccccc1 | 609
O=C(CSc1nnc2c(=O)n(-c3ccccc3)ccn12)c1ccc(Br)cc1 | 881
O=C(NC1CCCCC1)c1ccc(Nc2c(-c3ccc(Cl)cc3)nc3cnccn23)cc1 | 909
CCCc1ccc(S(=O)(=O)NC2CCN(c3ccc(=O)n(CC4CC4)n3)CC2)cc1 | 972
COC(=O)c1[nH]c2c(c1C)C(=O)CC(c1cccc(OC)c1)C2 (centres undefined) | 838
O=C(c1ccc(Cl)s1)N1CC(F)(F)C[C@H]1COc1cccnc1 | 731
CC1CCC(NC(=O)C2CCN(c3cnn(Cc4ccccc4)c(=O)c3)CC2)CC1 (centres undefined) | 841
Cc1cc(N2CCN(C(=O)C3CCC3)CC2)nc2nncn12 | 566
Cn1nccc1-c1cccc(-c2noc(-c3ccc(F)c(Cl)c3)n2)c1 | 1280
Cn1c(C(=O)Nc2ccccc2F)cc2c(=O)oc3ccccc3c21 | 919

Structure (SMILES) | RP-LC retention time [s]
CCc1noc(C)c1-c1[nH]c2ccccc2c1C(=O)C(=O)N(C)C | 714
O=C(Nc1nc2ccccc2s1)c1ccc([N+](=O)[O-])cc1Cl | 877
Cc1ccccc1NC(=O)N(C)CCc1noc(COc2ccccc2F)n1 | 926
CC(C)N1C(=O)C(C)(C(=O)NCc2ccccc2)Oc2cccnc21 (centres undefined) | 912
CCCc1ccc(S(=O)(=O)Nc2ccc(N3CCCN(C)CC3)cc2C(=O)O)cc1 | 676
O=C(CN1CCN(Cc2ccc(F)cc2Cl)C1=O)N1CCN(c2ccc(F)cc2)CC1 | 908
O=C(CCSc1ccccc1)N1CCN(c2ccc(-c3ccccn3)nn2)CC1 | 644
COc1ccc(OC)c(NC(=O)N2CCN(c3cc(-c4ccccc4)ncn3)CC2)c1 | 667
Nc1cc(C2CCN(C(=O)c3ccc(F)cc3)CC2)no1 | 675
CCOC(=O)c1noc2ncnc(NC3CCN(Cc4ccccc4)CC3)c12 | 616
C=CCN1C(=O)COc2ccc(-c3csc(NC(=O)COC)n3)cc21 | 785
Cc1noc2nc(CCC(=O)NCCCc3ccccc3)nc(N3CCOCC3)c12 | 760
COc1ccc(CN2C(=O)CC(c3ccc(OC)c(OC)c3)CC2=O)cc1 | 879
CCn1c(SCC(=O)Nc2nc(-c3ccc(C)cc3)cs2)nnc1-c1cc2ccccc2o1 | 1140
O=C(CCc1nc(-c2ccc(N3CCCC3)cc2)no1)Nc1ccc2c(c1)OCCO2 | 1010
Cc1cccc(Cn2c(=O)n(CCNC(=O)CC(C)(C)C)c3ncccc32)c1 | 864
CCN1CCCn2cc(S(=O)(=O)NCc3ccccc3)cc2C1=O | 711
Fc1ccccc1-c1nnc2sc(-c3ccc4ccccc4n3)nn12 | 1080
CSc1nnc(-c2nn(C)c3c2CN(C(=O)c2ccc(F)c(F)c2)CC3)n1C | 720
COc1cccc(-n2ccc(=O)c(-c3nc(-c4cccc(F)c4)no3)n2)c1 | 905

From the METLIN SMRT retention time set (Domingo-Almenara et al. 2019)
